Test results from PMC7932537, “Quantitative profiling of protease specificity” (PLoS Computational Biology, 2021).

How the values were obtained:
[1] = biological target: MMP-9 (Homo sapiens, UniProt P14780); experiment: K(obs) of individual phage substrates (set of 1369); type: biochemical; conditions: MMP9
[2] = biological target: T1, MMP-2 (Homo sapiens, UniProt P08253); experiment: as above; type: biochemical; conditions: MMP2
T1 sequence (P08253 110-660): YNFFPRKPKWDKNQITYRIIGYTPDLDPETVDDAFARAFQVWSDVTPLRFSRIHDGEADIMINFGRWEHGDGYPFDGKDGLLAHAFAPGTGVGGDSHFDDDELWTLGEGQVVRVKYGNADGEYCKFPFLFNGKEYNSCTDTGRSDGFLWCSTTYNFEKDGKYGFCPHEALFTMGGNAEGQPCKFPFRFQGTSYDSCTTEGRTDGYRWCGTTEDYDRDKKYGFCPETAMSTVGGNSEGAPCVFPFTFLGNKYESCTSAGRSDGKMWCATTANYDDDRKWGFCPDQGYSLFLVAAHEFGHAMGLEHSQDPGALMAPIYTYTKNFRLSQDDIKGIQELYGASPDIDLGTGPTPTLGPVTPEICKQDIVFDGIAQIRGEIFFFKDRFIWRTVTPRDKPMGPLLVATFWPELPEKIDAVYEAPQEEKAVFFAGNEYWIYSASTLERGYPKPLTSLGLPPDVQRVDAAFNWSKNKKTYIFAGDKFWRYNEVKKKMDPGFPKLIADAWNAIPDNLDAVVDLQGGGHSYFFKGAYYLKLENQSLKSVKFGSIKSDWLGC

[3] = system: MMP-2; experiment: Substrate phage display with NGS: relative probability (RP) of P3-P1' tetramer clusters; type: biochemical, human; conditions: MMP2;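 also: ratio of tetramer probability after protease selection to that in naive phage library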
[4] = individual phage substrates, set of 1369 peptides, hyphen in sequence marks cleavage position
[5] = individual phage substrates, set of 1369 peptides, cleavage position marked by hyphen in sequence
[6] = RP of the P3-P1' tetramer contained in the substrate (substrate phage display with NGS)
[7] = individual phage substrate of the set of 1369 peptides, dash in the sequence marks the cleavage position
[8] = individual phage substrate of the set of 1369 peptides, cleavage position marked by '-'
[9] = RP of the P3-P1' tetramer contained in the substrate

MMP-9, sequence (P14780 94-707): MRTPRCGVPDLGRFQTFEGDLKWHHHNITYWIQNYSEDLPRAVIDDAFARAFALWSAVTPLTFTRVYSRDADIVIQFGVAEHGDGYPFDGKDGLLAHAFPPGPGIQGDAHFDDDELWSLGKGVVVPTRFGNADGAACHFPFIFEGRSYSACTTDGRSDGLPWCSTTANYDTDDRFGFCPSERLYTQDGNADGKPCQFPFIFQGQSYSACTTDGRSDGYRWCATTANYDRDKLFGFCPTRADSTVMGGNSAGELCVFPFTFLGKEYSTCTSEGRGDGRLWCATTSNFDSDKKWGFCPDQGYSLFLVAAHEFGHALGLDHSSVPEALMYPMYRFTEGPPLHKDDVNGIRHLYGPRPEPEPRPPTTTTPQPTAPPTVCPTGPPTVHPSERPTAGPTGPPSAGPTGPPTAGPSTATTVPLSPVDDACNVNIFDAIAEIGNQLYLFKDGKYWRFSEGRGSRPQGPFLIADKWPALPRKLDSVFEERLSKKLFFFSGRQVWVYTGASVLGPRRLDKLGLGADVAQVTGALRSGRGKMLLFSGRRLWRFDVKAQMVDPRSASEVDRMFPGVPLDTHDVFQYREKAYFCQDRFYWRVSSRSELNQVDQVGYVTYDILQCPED

Row | Substance | Kobs [1, 4] | Kobs [2, 5] | Kobs [1, 7] | Kobs [2, 8] | relative probability (RP) [3, 6] | relative probability (RP) [3, 9]
1 | HLAYH-MTASG | 6396.07 M⁻¹ s⁻¹ | 2476.66 M⁻¹ s⁻¹ | – | – | 3.76 | –
2 | HQWAA-LTASG | – | – | 836.403 M⁻¹ s⁻¹ | 12792.1 M⁻¹ s⁻¹ | – | 24.4484
3 | HRHAH-LTASG | – | – | 0 M⁻¹ s⁻¹ | 7015.91 M⁻¹ s⁻¹ | – | 20.0775
4 | HRPRS-LTASG | – | – | 12792.1 M⁻¹ s⁻¹ | 12792.1 M⁻¹ s⁻¹ | – | 33.3704
5 | HRWSA-LTASG | – | – | 619.843 M⁻¹ s⁻¹ | 12792.1 M⁻¹ s⁻¹ | – | 25.8217
6 | HSPWF-LTASG | 9740.44 M⁻¹ s⁻¹ | 3165.09 M⁻¹ s⁻¹ | – | – | 12.628 | –
7 | IEAWS-LTASG | 7015.91 M⁻¹ s⁻¹ | 762.325 M⁻¹ s⁻¹ | – | – | 7.006 | –
8 | IGALA-LTASG | – | – | 12792.1 M⁻¹ s⁻¹ | 12792.1 M⁻¹ s⁻¹ | – | 22.1184
9 | IPAFN-LTASG | 12792.1 M⁻¹ s⁻¹ | 10866.7 M⁻¹ s⁻¹ | – | – | 16.2959 | –
10 | IPLLN-LTASG | 1870.4 M⁻¹ s⁻¹ | 12792.1 M⁻¹ s⁻¹ | – | – | 8.579 | –
11 | KDYLH-LTASG | – | – | 0 M⁻¹ s⁻¹ | 0 M⁻¹ s⁻¹ | – | 0.4077
12 | KGPEM-LTASG | 5667.28 M⁻¹ s⁻¹ | 3637.04 M⁻¹ s⁻¹ | – | – | 16.0599 | –
13 | KSPSL-YTASG | – | – | 5090.5 M⁻¹ s⁻¹ | 4335.13 M⁻¹ s⁻¹ | – | 18.1013
14 | KTVVW-YTASG | – | – | 3850.82 M⁻¹ s⁻¹ | 3165.09 M⁻¹ s⁻¹ | – | 9.938
15 | KWVSM-LTASG | 1870.4 M⁻¹ s⁻¹ | 12792.1 M⁻¹ s⁻¹ | – | – | 23.0821 | –
16 | LAWAH-ITASG | – | – | 0 M⁻¹ s⁻¹ | 1030.73 M⁻¹ s⁻¹ | – | 0.05752

Row | Substance | Kobs [1, 4] | Kobs [2, 5] | Kobs [1, 7] | Kobs [2, 8] | relative probability (RP) [3, 6] | relative probability (RP) [3, 9]
17 | LLYAS-LTASG | 990.764 M⁻¹ s⁻¹ | 12792.1 M⁻¹ s⁻¹ | – | – | 26.9916 | –
18 | LLYMG-LTASG | 799.117 M⁻¹ s⁻¹ | 874.197 M⁻¹ s⁻¹ | – | – | 0.09823 | –
19 | LNPAF-LTASG | – | – | 8941.32 M⁻¹ s⁻¹ | 12792.1 M⁻¹ s⁻¹ | – | 32.4224
20 | LVGNS-LTASG | 0 M⁻¹ s⁻¹ | 1981.53 M⁻¹ s⁻¹ | – | – | 0.2884 | –
21 | MGMWH-LTASG | 142.481 M⁻¹ s⁻¹ | 0 M⁻¹ s⁻¹ | – | – | 0.2013 | –
22 | MNWES-LTASG | 0 M⁻¹ s⁻¹ | 517.582 M⁻¹ s⁻¹ | – | – | 0.6249 | –
23 | MSLGN-LTASG | 292.668 M⁻¹ s⁻¹ | 12792.1 M⁻¹ s⁻¹ | – | – | 33.3542 | –
24 | NHVWP-LTASG | – | – | 726.013 M⁻¹ s⁻¹ | 1154.21 M⁻¹ s⁻¹ | – | 5.294
25 | NKVYA-WTASG | 1711.63 M⁻¹ s⁻¹ | 799.117 M⁻¹ s⁻¹ | – | – | 0.6193 | –
26 | NMWAH-LTASG | 323.705 M⁻¹ s⁻¹ | 3079.62 M⁻¹ s⁻¹ | – | – | 7.453 | –
27 | NRFSN-LTASG | 0 M⁻¹ s⁻¹ | 8941.32 M⁻¹ s⁻¹ | – | – | 24 | –
28 | NRLSH-WTASG | 912.511 M⁻¹ s⁻¹ | 12792.1 M⁻¹ s⁻¹ | – | – | 23.1226 | –
29 | NRPAS-WTASG | 3253.29 M⁻¹ s⁻¹ | 12792.1 M⁻¹ s⁻¹ | – | – | 32.4643 | –
30 | NSPLS-YTASG | – | – | 12792.1 M⁻¹ s⁻¹ | 8321.48 M⁻¹ s⁻¹ | – | 31.2477
31 | NTPNW-LTASG | 6131.32 M⁻¹ s⁻¹ | 10866.7 M⁻¹ s⁻¹ | – | – | 26.5667 | –
32 | NTSAW-LTASG | 386.839 M⁻¹ s⁻¹ | 6688.74 M⁻¹ s⁻¹ | – | – | 18.9346 | –

Now from value to substance, other results behind:

Row | Kobs [1, 4] | Kobs [2, 5] | Kobs [1, 7] | Kobs [2, 8] | Substance | relative probability (RP) [3, 6] | relative probability (RP) [3, 9]
33 | 0 M⁻¹ s⁻¹ | 1610.61 M⁻¹ s⁻¹ | – | – | HNANY-LTASG | 3.901 | –
34 | – | – | 912.511 M⁻¹ s⁻¹ | 6688.74 M⁻¹ s⁻¹ | HRLLS-LTASG | – | 2.018
35 | 0 M⁻¹ s⁻¹ | 912.511 M⁻¹ s⁻¹ | – | – | HRQQN-LTASG | 4.247 | –
36 | – | – | 451.441 M⁻¹ s⁻¹ | 3079.62 M⁻¹ s⁻¹ | HTSNW-LTASG | – | 9.68
37 | – | – | 619.843 M⁻¹ s⁻¹ | 418.952 M⁻¹ s⁻¹ | HVWMN-LTASG | – | 0
38 | 3079.62 M⁻¹ s⁻¹ | 2837.92 M⁻¹ s⁻¹ | – | – | HWPVG-LTASG | 35.2016 | –
39 | – | – | 8321.48 M⁻¹ s⁻¹ | 4335.13 M⁻¹ s⁻¹ | HYPLN-STASG | – | 18.9358
40 | 0 M⁻¹ s⁻¹ | 6688.74 M⁻¹ s⁻¹ | – | – | IAFSQ-LTASG | 9.065 | –
41 | – | – | 2344.36 M⁻¹ s⁻¹ | 3344.37 M⁻¹ s⁻¹ | IDTRW-YTASG | – | 6.7229
42 | – | – | 12792.1 M⁻¹ s⁻¹ | 12792.1 M⁻¹ s⁻¹ | IGPQF-LTASG | – | 26.3159
43 | 323.705 M⁻¹ s⁻¹ | 3637.04 M⁻¹ s⁻¹ | – | – | ISVNY-LTASG | 8.427 | –
44 | 386.839 M⁻¹ s⁻¹ | 1112.44 M⁻¹ s⁻¹ | – | – | ISWLN-LTASG | 0.1218 | –
45 | – | – | 0 M⁻¹ s⁻¹ | 1763.55 M⁻¹ s⁻¹ | KAVNH-LTASG | – | 12.8499
46 | – | – | 0 M⁻¹ s⁻¹ | 0 M⁻¹ s⁻¹ | KFWFN-LTASG | – | 0
47 | – | – | 6688.74 M⁻¹ s⁻¹ | 3079.62 M⁻¹ s⁻¹ | KKWRG-LTASG | – | 23.375
48 | – | – | 4763.33 M⁻¹ s⁻¹ | 2615.58 M⁻¹ s⁻¹ | KLGRA-LTASG | – | 7.944
49 | 8941.32 M⁻¹ s⁻¹ | 8321.48 M⁻¹ s⁻¹ | – | – | KMPSF-LTASG | 29.537 | –
50 | 3438.54 M⁻¹ s⁻¹ | 1561.44 M⁻¹ s⁻¹ | – | – | KMVYM-LTASG | 5.094 | –
51 | 10866.7 M⁻¹ s⁻¹ | 4470.66 M⁻¹ s⁻¹ | – | – | KSPLG-LTASG | 35.3536 | –

Row | Kobs [1, 4] | Kobs [2, 5] | Kobs [1, 7] | Kobs [2, 8] | Substance | relative probability (RP) [3, 6] | relative probability (RP) [3, 9]
52 | – | – | 6688.74 M⁻¹ s⁻¹ | 9740.44 M⁻¹ s⁻¹ | KSPVF-LTASG | – | 21.7568
53 | – | – | 0 M⁻¹ s⁻¹ | 690.17 M⁻¹ s⁻¹ | KTWRN-LTASG | – | 6.7583
54 | 0 M⁻¹ s⁻¹ | 8941.32 M⁻¹ s⁻¹ | – | – | LLFSQ-LTASG | 9.065 | –
55 | 1660.66 M⁻¹ s⁻¹ | 386.839 M⁻¹ s⁻¹ | – | – | LPYFS-MTASG | 0.06612 | –
56 | 1239.69 M⁻¹ s⁻¹ | 0 M⁻¹ s⁻¹ | – | – | LQSMN-LTASG | 2.165 | –
57 | 56.119 M⁻¹ s⁻¹ | 12792.1 M⁻¹ s⁻¹ | – | – | LSHAW-LTASG | 27.1428 | –
58 | – | – | 12792.1 M⁻¹ s⁻¹ | 12792.1 M⁻¹ s⁻¹ | LSVFW-LTASG | – | 13.7679
59 | 5461.43 M⁻¹ s⁻¹ | 5269.78 M⁻¹ s⁻¹ | – | – | LTPRY-WTASG | 20.9965 | –
60 | – | – | 2476.66 M⁻¹ s⁻¹ | 6688.74 M⁻¹ s⁻¹ | LVGRA-LTASG | – | 7.944
61 | 0 M⁻¹ s⁻¹ | 5090.5 M⁻¹ s⁻¹ | – | – | LWYGH-LTASG | 11.3746 | –
62 | – | – | 585.336 M⁻¹ s⁻¹ | 12792.1 M⁻¹ s⁻¹ | MKWAA-YTASG | – | 15.6012
63 | – | – | 0 M⁻¹ s⁻¹ | 12792.1 M⁻¹ s⁻¹ | MSLGY-LTASG | – | 24.8925
64 | – | – | 12792.1 M⁻¹ s⁻¹ | 12792.1 M⁻¹ s⁻¹ | MSPRW-LTASG | – | 34.1809
65 | – | – | 113.394 M⁻¹ s⁻¹ | 12792.1 M⁻¹ s⁻¹ | MSWSA-LTASG | – | 25.8217
66 | – | – | 10866.7 M⁻¹ s⁻¹ | 7815.03 M⁻¹ s⁻¹ | MVPKW-LTASG | – | 29.287
67 | – | – | 0 M⁻¹ s⁻¹ | 261.974 M⁻¹ s⁻¹ | NRVEM-LTASG | – | 2.124
68 | – | – | 5461.43 M⁻¹ s⁻¹ | 5461.43 M⁻¹ s⁻¹ | NVPVW-MTASG | – | 25.8126
69 | – | – | 0 M⁻¹ s⁻¹ | 0 M⁻¹ s⁻¹ | PAYFP-LTASG | – | 0.1432
70 | – | – | 619.843 M⁻¹ s⁻¹ | 1327.88 M⁻¹ s⁻¹ | PCHLA-LTASG | – | 11.3603
